Data as given in ChEMBL document CHEMBL1201862, “PubChem BioAssay data set” (2004).
The source made the active and inactive calls.

Assays:
[1] = biological target: T1, CAAX prenyl protease 2 (Saccharomyces cerevisiae S288c, UniProt Q03530); format: biochemical
T1 sequence (Q03530 whole entry): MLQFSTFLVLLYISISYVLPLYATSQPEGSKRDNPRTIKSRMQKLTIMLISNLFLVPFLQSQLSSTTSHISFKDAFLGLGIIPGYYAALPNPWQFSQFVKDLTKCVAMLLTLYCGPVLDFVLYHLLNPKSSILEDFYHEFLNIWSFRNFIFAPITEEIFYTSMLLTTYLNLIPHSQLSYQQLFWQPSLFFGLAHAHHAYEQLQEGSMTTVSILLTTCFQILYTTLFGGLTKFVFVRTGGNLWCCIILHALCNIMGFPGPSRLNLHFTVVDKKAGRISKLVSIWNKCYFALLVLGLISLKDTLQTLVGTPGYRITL

[2] = Luminescence Cell-Based Dose Retest to Confirm Inhibitors of Cancer Stem Cells. [Related pubchem assays (depositor defined):AID2717, AID2721]; format: functional; conditions: Homo sapiens
[3] = toxicity toward cultured mammalian cells – cell-based, plate reader, cherry-pick samples, cytotoxicity control, dose response (AID 504397); format: functional
[4] = biological target: T2, Alkaline phosphatase, tissue-nonspecific isozyme (Homo sapiens, UniProt P05186); assay: TNAP enzyme inhibition by screening hits, dose response, selectivity assay for mouse IAP inhibitor project, biochemical, human TNAP, uHTS hits (AID 488906); format: functional
T2 sequence (P05186 whole entry): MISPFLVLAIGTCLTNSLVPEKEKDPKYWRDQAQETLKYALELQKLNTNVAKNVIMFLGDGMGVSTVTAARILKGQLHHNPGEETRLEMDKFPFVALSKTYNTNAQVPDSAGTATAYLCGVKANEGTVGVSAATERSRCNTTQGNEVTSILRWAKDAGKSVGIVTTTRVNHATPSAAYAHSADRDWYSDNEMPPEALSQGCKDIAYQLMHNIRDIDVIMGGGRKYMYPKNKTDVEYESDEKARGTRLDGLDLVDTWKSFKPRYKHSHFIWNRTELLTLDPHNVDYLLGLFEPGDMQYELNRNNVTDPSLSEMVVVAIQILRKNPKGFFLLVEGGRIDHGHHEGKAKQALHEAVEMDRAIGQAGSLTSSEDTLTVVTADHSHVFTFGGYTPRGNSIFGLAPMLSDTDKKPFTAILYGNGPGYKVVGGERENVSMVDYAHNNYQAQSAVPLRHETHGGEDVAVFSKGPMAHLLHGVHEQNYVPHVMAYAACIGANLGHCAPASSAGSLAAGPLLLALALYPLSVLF

[5] = biological target: T3, SUMO-activating enzyme (Homo sapiens, UniProt Q9UBT2); assay: blockers of UBC9-mediated SUMO conjugation – biochemical, AlphaScreen, SUMOylation inhibitor project, confirmation (AID 2018); format: functional
T3 sequence (Q9UBE0 whole entry): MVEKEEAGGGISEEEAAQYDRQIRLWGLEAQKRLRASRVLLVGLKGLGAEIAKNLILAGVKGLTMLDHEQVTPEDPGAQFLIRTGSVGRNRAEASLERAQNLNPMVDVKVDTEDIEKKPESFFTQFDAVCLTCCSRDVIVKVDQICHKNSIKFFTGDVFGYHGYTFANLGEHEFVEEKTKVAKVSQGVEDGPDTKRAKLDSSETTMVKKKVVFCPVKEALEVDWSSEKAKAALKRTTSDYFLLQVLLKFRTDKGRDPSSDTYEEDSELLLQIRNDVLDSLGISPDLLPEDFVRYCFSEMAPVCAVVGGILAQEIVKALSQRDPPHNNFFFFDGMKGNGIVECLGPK
T3 sequence (Q9UBT2 whole entry): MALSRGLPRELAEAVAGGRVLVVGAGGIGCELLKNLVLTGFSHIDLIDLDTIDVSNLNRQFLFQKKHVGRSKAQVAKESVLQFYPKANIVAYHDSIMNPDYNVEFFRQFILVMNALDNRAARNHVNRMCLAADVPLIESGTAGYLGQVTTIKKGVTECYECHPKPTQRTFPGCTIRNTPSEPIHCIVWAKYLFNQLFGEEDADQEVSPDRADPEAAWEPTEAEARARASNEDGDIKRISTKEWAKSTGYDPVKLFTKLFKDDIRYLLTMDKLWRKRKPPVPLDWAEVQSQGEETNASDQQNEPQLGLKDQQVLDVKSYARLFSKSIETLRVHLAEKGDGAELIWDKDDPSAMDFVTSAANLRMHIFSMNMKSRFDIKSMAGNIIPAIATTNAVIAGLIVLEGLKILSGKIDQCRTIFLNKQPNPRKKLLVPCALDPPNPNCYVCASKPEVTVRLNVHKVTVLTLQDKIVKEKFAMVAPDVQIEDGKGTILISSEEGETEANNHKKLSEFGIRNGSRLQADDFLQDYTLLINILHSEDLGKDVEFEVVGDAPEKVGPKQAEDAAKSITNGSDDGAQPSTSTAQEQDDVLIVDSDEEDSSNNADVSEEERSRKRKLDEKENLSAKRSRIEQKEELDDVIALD

[6] = biological target: Intestinal-type alkaline phosphatase (Homo sapiens, UniProt P09923); assay: inhibition of human intestinal alkaline phosphatase – biochemical, dose response (AID 488876); format: functional
Intestinal-type alkaline phosphatase (Homo sapiens, UniProt P09923), sequence (P09923 whole entry): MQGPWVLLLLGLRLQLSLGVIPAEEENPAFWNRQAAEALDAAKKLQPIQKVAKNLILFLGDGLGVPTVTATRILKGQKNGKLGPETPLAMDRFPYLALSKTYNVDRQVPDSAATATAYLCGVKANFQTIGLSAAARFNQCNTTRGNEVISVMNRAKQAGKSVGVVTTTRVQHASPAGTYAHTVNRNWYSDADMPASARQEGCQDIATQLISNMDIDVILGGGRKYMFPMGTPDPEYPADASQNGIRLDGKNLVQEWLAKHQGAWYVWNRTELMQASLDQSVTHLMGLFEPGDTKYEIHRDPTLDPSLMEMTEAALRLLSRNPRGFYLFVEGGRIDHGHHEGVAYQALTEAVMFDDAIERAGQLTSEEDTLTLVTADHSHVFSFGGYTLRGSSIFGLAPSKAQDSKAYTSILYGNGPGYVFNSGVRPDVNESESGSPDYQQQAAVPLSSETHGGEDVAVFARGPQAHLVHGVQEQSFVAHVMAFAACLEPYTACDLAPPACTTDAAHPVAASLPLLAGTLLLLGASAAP

[7] = biological target: T3, SUMO-activating enzyme; assay: blockers of SAE1/SAE2–UBC9 SUMO transfer – biochemical, HTRF, uHTS, primary screen (AID 2006); format: protein-complex assay
[8] = biological target: Large T antigen (Simian virus 40, UniProt P03070); format: functional, Betapolyomavirus macacae;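 also: Confirmatory-stage PubChem screen for compounds that inhibit SV40 T antigen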
[9] = biological target: Intestinal-type alkaline phosphatase (Mus musculus, UniProt P24822); assay: PubChem AID 488785; format: functional
Intestinal-type alkaline phosphatase (Mus musculus, UniProt P24822), sequence (P24822 whole entry): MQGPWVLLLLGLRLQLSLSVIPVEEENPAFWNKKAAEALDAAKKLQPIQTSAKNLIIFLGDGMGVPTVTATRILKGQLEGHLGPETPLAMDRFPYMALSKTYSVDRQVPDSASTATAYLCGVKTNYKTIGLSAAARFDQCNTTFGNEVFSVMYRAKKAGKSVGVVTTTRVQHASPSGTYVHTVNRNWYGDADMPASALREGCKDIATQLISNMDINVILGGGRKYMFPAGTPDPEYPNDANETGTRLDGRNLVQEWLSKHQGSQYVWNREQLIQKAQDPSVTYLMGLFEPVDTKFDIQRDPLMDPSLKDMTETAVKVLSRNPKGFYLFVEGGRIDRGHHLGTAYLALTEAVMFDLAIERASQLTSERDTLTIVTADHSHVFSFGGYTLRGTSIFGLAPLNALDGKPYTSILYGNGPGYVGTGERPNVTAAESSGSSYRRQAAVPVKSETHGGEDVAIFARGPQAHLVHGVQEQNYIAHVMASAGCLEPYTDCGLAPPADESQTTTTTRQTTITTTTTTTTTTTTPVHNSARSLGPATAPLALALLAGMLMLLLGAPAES

[10] = Luminescence Cell-Based Dose Response HTS to Identify Activators of Luciferase Translation or Activity in H4-C Neuroglioblastoma Cells. [Related pubchem assays: 1829 (Project Summary), 1814 (Primary HTS)]; format: functional
[11] = luciferase reporter signal suppression in cells – H4 neuroglioma cells, luminescence, dose response (AID 1990); format: functional, cell-based
[12] = Luminescence Cell-Based Dose Response HTS to Identify Inhibitors of 5'UTR Stem-Loop Driven Prion Protein mRNA Translation in H4 Neuroglioblastoma Cells. [Related pubchem assays: 1827 (Project Summary), 1813 (Primary HTS)]; format: functional
[13] = Luminescence Cell-Based Dose HTS Response to Identify Inhibitors of 5'UTR Stem-Loop Driven Prion Protein mRNA Translation in H4-C Neuroglioblastoma Cells. [Related pubchem assays (depositor defined):AID1814, AID1827]; format: functional
[14] = Luminescence Cell-Based Dose Response HTS to Identify Inhibitors of Luciferase Translation or Activity in H4-C Neuroglioblastoma Cells. [Related pubchem assays: 1813 (Primary HTS), 1827 (Project Summary)]; format: functional
[15] = alpha-synuclein stem-loop luciferase translation blockers – H4 neuroglioma cells, luminescence, confirmation (AID 1988); format: functional, cell-based
[16] = Luminescence Cell-Based Dose Retest to Confirm Activators of 5'UTR Stem-Loop Driven Alpha-Synuclein mRNA Translation in H4 Neuroglioblastoma Cells. [Related pubchem assays (depositor defined):AID1813, AID1829]; format: functional
[17] = Luminescence Cell-Based Dose Response HTS to Identify Activators of 5'UTR Stem-Loop Driven Prion Protein mRNA Translation in H4-C Neuroglioblastoma Cells. [Related pubchem assays: 1829 (Project Summary), 1814 (Primary HTS)]; format: functional
[18] = Luminescence Cell-Based Dose Confirmation HTS to Identify Inhibitors of 5'UTR Stem-Loop Driven Alpha-Synuclein mRNA Translation in H4 Neuroglioblastoma Cells. [Related pubchem assays: 1827 (Project Summary), 1813 (Primary HTS)]; format: functional
[19] = biological target: T4, Zinc finger protein mex-5 (Caenorhabditis elegans, UniProt Q9XUB2); assay: potency of MEX-5 RNA-binding blockers – biochemical, C. elegans, fluorescence polarization, dose response (AID 1960)
T4 sequence (Q9XUB2 whole entry): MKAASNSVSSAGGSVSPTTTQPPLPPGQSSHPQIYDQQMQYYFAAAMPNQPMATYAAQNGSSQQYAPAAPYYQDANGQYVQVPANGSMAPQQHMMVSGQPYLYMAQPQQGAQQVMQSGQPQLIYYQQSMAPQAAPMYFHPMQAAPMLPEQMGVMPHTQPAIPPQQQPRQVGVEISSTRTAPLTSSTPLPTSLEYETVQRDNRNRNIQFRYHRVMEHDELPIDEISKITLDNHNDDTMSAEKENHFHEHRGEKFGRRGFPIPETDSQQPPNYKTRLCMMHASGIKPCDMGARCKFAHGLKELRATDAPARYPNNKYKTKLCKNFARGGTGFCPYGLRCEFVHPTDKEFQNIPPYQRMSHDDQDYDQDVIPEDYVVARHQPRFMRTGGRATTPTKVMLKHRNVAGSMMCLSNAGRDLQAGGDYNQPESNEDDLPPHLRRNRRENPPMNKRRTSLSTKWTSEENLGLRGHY

[20] = biological target: Tyrosyl-DNA phosphodiesterase 2 (Homo sapiens, UniProt O95551); assay: potency against TDP2 phosphodiesterase activity – biochemical, epi absorbance, IC50, dose response (AID 743297)
[21] = biological target: SUMO E1/E2 (Homo sapiens, UniProt P63279+Q9UBE0+Q9UBT2); assay: SAR analysis of SUMOylation using HTRF in an in-Vitro dose response assay. [Related pubchem assays (depositor defined):AID2006, AID2011, AID2018, AID2069, AID2658]; format: functional
[22] = biological target: T5, Sentrin-specific protease 8 (Homo sapiens, UniProt Q96LD8); format: functional
T5 sequence (Q96LD8 whole entry): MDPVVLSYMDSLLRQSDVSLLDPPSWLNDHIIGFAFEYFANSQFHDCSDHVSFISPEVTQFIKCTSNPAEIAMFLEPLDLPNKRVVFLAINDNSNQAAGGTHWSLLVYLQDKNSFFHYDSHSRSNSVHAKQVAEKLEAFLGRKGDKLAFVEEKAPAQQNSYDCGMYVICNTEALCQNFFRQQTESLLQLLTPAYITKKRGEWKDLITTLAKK

[23] = biological target: T6, RNA-binding protein pos-1 (Caenorhabditis elegans, UniProt G5EF15); assay: disruptors of C. elegans POS-1 RNA interaction – biochemical, fluorescence polarization, dose response (AID 1964);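 also: purified POS-1 fused to maltose binding protein made in E. coli; potency of compounds blocking POS-1 binding to fluorescent RNA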
T6 sequence (G5EF15 whole entry): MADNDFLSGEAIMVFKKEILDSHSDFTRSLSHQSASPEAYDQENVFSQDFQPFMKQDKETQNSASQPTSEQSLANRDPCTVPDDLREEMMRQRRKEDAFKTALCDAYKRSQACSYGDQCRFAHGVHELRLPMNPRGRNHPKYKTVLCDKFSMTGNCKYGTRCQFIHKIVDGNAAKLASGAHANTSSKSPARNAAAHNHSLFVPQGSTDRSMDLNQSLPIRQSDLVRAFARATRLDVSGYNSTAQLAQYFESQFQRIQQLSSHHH

[24] = biological target: T5, Sentrin-specific protease 8; format: functional; remark: listed apart in the source
[25] = biological target: Lysine-specific demethylase 4C (Homo sapiens, UniProt Q9H3R0); assay: inhibition of JMJD2C H3K9me3 demethylation – biochemical, DELFIA europium, cherry-picked samples, dose response (AID 488835); format: functional
Lysine-specific demethylase 4C, sequence (Q9H3R0 whole entry): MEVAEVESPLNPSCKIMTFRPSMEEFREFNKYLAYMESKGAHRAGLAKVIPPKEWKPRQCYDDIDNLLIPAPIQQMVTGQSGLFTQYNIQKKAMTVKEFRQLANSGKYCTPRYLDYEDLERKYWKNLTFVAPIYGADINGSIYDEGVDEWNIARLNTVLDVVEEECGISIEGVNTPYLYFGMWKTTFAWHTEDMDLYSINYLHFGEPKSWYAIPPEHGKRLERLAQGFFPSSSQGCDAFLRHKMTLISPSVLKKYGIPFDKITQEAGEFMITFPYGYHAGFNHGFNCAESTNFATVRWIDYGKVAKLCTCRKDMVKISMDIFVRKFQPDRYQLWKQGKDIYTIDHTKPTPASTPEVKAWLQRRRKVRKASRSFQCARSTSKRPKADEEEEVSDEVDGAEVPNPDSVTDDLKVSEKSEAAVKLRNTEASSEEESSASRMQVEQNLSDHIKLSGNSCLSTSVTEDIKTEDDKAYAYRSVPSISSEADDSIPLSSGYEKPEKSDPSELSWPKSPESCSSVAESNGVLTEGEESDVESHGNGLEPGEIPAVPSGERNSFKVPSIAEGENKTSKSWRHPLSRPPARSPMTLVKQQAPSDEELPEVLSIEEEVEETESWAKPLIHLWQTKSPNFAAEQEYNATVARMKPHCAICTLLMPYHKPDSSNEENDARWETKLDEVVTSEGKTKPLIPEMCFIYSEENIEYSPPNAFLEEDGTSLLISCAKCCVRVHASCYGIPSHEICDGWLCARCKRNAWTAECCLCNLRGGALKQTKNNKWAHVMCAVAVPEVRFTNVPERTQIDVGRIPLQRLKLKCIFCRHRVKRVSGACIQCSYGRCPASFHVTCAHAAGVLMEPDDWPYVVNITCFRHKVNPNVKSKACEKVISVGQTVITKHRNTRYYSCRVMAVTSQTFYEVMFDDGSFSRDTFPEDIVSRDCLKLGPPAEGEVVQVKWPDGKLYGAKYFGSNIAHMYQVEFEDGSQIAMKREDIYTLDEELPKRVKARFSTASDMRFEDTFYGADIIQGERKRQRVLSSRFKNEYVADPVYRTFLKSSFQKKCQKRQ

[26] = biological target: Lysine-specific demethylase 4A (Homo sapiens, UniProt O75164); assay: inhibition of JMJD2A H3K9me3 demethylation – biochemical, DELFIA europium, cherry-picked samples, selectivity assay for GASC-1 inhibitor project, dose response (AID 488840)
[27] = biological target: Kappa-type opioid receptor (Homo sapiens, UniProt P41145); assay: SAR analysis of small molecule agonists of the kappa opioid receptor via a luminescent beta-arrestin assay - Set 3. [Related pubchem assays (depositor defined):AID1777, AID1785, AID1786, AID1966, AID2133, AID2136, AID2284, AID2500]; format: functional
Kappa-type opioid receptor, sequence (P41145 whole entry): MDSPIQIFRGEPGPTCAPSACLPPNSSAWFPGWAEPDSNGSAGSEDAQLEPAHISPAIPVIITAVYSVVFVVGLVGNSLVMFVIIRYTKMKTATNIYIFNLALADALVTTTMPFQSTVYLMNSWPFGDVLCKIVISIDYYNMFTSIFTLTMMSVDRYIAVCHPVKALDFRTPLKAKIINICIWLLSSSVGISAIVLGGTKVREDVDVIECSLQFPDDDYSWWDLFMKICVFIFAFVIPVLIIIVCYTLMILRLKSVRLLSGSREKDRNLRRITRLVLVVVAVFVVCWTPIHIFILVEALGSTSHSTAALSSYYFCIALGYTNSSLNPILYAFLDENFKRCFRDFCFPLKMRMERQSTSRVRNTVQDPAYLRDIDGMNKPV

[28] = PhoP promoter GFP reporter reduction in Typhimurium – purified and synthesized compounds, set 2, PhoP regulon inhibitor project, dose response (AID 2831); format: functional
[29] = biological target: Voltage-dependent T-type calcium channel subunit alpha-1H (Homo sapiens, UniProt O95180); assay: inhibition of CACNA1H calcium flux – cell-based, SynthLib3 library, HEK293 Cav3.2, fluorescence (AID 493041); format: functional
[30] = biological target: T7, G-protein coupled receptor 55 (Homo sapiens, UniProt Q9Y2T6); assay: blockade of LPI-induced GPR55 arrestin translocation – imaging, U2OS, beta-arrestin-GFP, LPI agonist, set 2, SAR follow-up (AID 2820); format: functional
T7 sequence (Q9Y2T6 whole entry): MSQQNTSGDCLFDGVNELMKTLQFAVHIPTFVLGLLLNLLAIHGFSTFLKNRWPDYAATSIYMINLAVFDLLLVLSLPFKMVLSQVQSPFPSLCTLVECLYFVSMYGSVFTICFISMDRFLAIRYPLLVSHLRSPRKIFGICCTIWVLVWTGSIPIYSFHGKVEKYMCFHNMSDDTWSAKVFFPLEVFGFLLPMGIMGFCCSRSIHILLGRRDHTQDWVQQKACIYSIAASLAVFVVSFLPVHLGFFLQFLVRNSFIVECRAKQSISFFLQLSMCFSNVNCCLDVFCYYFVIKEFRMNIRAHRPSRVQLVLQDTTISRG

[31] = biological target: T8, G-protein coupled receptor 35 (Homo sapiens, UniProt Q9HC97); assay: SAR analysis of Antagonists of the GPR35 Receptor using an Image-Based Assay - Set 3. [Related pubchem assays (depositor defined):AID2013, AID2026]; format: functional
T8 sequence (Q9HC97 whole entry): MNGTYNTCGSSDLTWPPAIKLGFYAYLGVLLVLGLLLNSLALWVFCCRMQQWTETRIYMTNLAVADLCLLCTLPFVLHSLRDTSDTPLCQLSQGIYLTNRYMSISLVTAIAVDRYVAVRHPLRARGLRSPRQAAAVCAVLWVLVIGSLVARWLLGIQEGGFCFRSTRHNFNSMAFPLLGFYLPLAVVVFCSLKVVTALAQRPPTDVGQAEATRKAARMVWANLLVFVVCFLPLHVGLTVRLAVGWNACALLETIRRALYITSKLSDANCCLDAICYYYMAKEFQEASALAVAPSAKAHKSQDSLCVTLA

[32] = biological target: T9, Cannabinoid receptor 2 (Homo sapiens, UniProt P34972); assay: SAR analysis of antagonists of the Cannabinoid Receptor 2 using an Image-Based Assay. [Related pubchem assays (depositor defined):AID2013, AID2026]; format: functional
T9 sequence (P34972 whole entry): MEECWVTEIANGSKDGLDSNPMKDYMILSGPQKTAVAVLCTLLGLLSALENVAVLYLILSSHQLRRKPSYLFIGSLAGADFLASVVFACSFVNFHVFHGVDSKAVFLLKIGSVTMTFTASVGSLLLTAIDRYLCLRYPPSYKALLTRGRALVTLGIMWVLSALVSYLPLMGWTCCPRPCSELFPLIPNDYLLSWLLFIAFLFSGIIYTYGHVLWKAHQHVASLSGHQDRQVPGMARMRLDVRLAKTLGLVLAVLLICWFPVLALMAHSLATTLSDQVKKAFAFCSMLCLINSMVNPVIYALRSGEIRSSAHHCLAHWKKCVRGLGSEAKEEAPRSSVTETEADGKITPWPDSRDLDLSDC

[33] = biological target: T7, G-protein coupled receptor 55; assay: inhibition of LPI-stimulated GPR55 beta-arrestin translocation – imaging, U2OS, beta-arrestin-GFP, LPI agonist, primary screen (AID 2013); format: functional;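 also: antagonist potency measured as reduced agonist-driven arrestin aggregation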
[34] = biological target: T9, Cannabinoid receptor 2; assay: SAR analysis of agonists of the Cannabinoid Receptor 2 using an Image-Based Assay. [Related pubchem assays (depositor defined):AID2013, AID2026]; format: functional
[35] = biological target: T8, G-protein coupled receptor 35; assay: SAR analysis of Agonists of the GPR35 Receptor using an Image-Based Assay - Set 2. [Related pubchem assays (depositor defined):AID2013, AID2026]; format: functional
[36] = biological target: T10, Cannabinoid receptor 1 (Homo sapiens, UniProt P21554); assay: SAR analysis of antagonists of the Cannabinoid Receptor 1 using an Image-Based Assay - Set 2. [Related pubchem assays (depositor defined):AID2013, AID2026]; format: functional
T10 sequence (P21554 whole entry): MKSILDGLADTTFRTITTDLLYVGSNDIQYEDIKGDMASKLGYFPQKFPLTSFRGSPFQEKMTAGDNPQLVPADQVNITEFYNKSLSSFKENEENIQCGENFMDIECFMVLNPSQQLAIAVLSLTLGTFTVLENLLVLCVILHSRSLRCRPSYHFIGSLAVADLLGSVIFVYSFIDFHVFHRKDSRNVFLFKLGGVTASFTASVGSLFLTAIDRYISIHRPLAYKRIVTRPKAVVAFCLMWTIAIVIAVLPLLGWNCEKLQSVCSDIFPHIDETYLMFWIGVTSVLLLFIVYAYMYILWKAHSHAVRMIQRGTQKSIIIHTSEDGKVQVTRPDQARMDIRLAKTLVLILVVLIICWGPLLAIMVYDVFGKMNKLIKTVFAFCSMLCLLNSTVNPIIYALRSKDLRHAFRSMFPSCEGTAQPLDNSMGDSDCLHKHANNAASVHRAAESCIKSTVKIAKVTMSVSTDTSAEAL

[37] = biological target: T10, Cannabinoid receptor 1; assay: SAR analysis of agonists of the Cannabinoid Receptor 1 using an Image-Based Assay - Set 2. [Related pubchem assays (depositor defined):AID2013, AID2026]; format: functional

Clc1cccc(CN2CCc3c([nH]c4ccccc34)C2)c1Cl
AC50 [1]: 3.27 µM (active) | AC50 [2]: 4.83 µM (active) | AC50 [3]: 117 µM (active)

NC1=NC(=O)/C(=C\c2ccco2)S1
IC50 [4]: > 100 µM (inactive) | IC50 [5]: 2.89 µM (active) | IC50 [6]: 19.8 µM (active) | IC50 [7]: 21.7 µM (active) | IC50 [8]: 67.2 µM (active) | IC50 [9]: 4.59 µM (active)

COc1ccc(/C=N/NC(=O)c2cc3c(OC)ccc(OC)c3[nH]2)cc1O
EC50 [10]: 2.51 µM (inconclusive) | EC50 [11]: 9.89 µM (active) | EC50 [12]: 13.3 µM (active) | EC50 [13]: 1.75 µM (active) | EC50 [14]: 0.747 µM (active) | EC50 [15]: 0.291 µM (active) | EC50 [16]: 29.5 µM (inconclusive) | EC50 [17]: 0.765 µM (inconclusive) | EC50 [18]: 2.9 µM (active)

Cc1[nH][nH]c(=O)c1C(c1ccc(-c2cccc(C(=O)O)c2)o1)c1c(C)[nH][nH]c1=O
EC50 [19]: 5.56 µM (active) | IC50 [20]: > 128 µM (inactive) | IC50 [21]: 84.1 µM (active) | IC50 [22]: 17.8 µM (active) | EC50 [23]: 18.1 µM (active) | IC50 [24]: 11.9 µM (active)

Cc1ccc(C)c(Cn2c(C(=O)OC(C)C)cc3c2ccn3C)c1
AC50 [25]: 11.6 µM (active) | AC50 [26]: 21.9 µM (active)

FC(F)(F)c1cc(CSc2nnc(-c3ccccn3)n2Cc2cccnc2)ccc1Cl
EC50 [27]: 0.501 µM (active)

S=C(NCc1ccc(Cl)cc1)Nc1ccc(Cl)cc1
IC50 [28]: > 150 µM (active)

O=C(COc1ccc(F)c(Cl)c1)N[C@H]1CCCN(CC2CCCC2)C1
EC50 [29]: 10 µM (active)

Cc1cccc2c1NC(=O)C2(c1ccc(O)cc1)c1ccc(O)cc1
IC50 [30]: 0.125 µM (active) | IC50 [31]: 7.66 µM (active) | IC50 [32]: > 32 µM (inactive) | IC50 [33]: 2.53 µM (active) | EC50 [34]: > 32 µM (inactive) | EC50 [35]: > 32 µM (inactive) | IC50 [36]: 31.3 µM (inactive) | EC50 [37]: > 32 µM (inactive)
